# Measured values reported in a melting point compilation (Tetko et al.; mined from patent text by program, amines drawn as free bases though some values may be those of a salt).
row,SMILES,melting point
1,Clc1cc(Cl)cc(-c2n[nH]cc2Cl)c1,192 °C
2,Cn1ncc(C(=O)N2CCOCC2)c1C(=O)Nc1ccn2nc(N3CCOCC3)nc2c1,206 to 208 °C
3,O=C1NC(=O)C(Nc2cccc(CCOCc3ccc4ccccc4n3)c2)S1 (centres undefined),167 to 168 °C
4,Nc1ncnc2c1c(-c1ccc(OCc3ccccc3)cc1)cn2-c1cccc(OCCCl)c1,146 to 148 °C
5,COc1ccc(N2CCN(CCc3ccc4[nH]c(=O)oc4c3)CC2)c2ccccc12,200 °C
6,CN(Cc1ccc(CCn2cnc3cc(-c4ccc(Cl)cc4)sc3c2=O)cc1)S(C)(=O)=O,230 to 232 °C
7,O=C(NN=C(Cc1ccccc1)c1ccccn1)OCc1ccccc1,155 °C
8,CCCNc1nc(C)c(CCCl)c(=O)n1C,150 °C
9,COc1ccc(C(=O)C(CC(=O)N[C@@H](Cc2ccccc2)C(=O)O)SC(C)=O)cc1F (some centres undefined),140 to 146 °C
10,COCCOc1ccc(-c2sc(N3C(=O)c4ccccc4C3=O)c(C(=O)c3ccc(Cl)cc3)c2CBr)cc1,142 to 145 °C
11,NNC(=O)Cn1c(=S)sc2ccccc21,214 to 215 °C
12,O=C1c2ccccc2C(=O)N1CCSc1nccc(NC(=S)NCC(F)(F)F)n1,238 to 241 °C
13,CCCOc1ccc(S(=O)(=O)Nc2ccc3[nH]ncc3c2)cc1-c1nc2cc3nc[nH]c3cc2c(=O)[nH]1,261 to 263 °C
14,CCOc1ccc(C=Nc2ccc(S(=O)(=O)NC(C)(C)C)cc2)cc1,188 °C
15,Cc1ccc(Cn2[nH]c(N)cc2=O)cc1C(F)(F)F,103 °C
16,N#Cc1ccsc1S(N)(=O)=O,152 to 155 °C
17,O=C(c1ccc(O)cc1)c1c(-c2ccccc2)sc2ccccc12,163 to 165 °C
18,CCCCCCCN(CCCCCSc1nc(-c2ccccc2)c(-c2ccccc2)[nH]1)C(=N)Nc1ccccc1,135 to 136 °C
19,NC1=NC(c2ccc(F)cc2)CO1 (centres undefined),116 to 121 °C
20,CC(C)NS(=O)(=O)Cc1ccc(N)cc1,105 to 107 °C
21,CCCC(C)(C)NC(=O)NC1=CC(=O)OC1,130 to 132 °C
22,COC(=O)c1ccc(OC)c(C=C2COc3ccc(OCc4ccccc4)cc3C2=O)c1,167 to 169 °C

row,SMILES,melting point
1,CCCCCC[C@H](F)CO,33 to 35 °C
2,O=C(Nc1ccc(C(=O)N2Cc3ccc(C(=O)C(Cl)(Cl)Cl)n3Cc3ccccc32)cc1)c1ccccc1C(F)(F)F,219 to 221 °C
3,CCCCCCCNC(=O)Nc1ccccc1C(=O)NC1CCCN(C(c2ccccc2)c2ccccc2)C1 (centres undefined),112 °C
4,CS(=O)(=O)OC1CCN(c2ccc(N)cc2)C1 (centres undefined),203 °C
5,C=CCOc1cc(-n2c(OC)nc(C(F)(F)C(F)(F)F)cc2=O)c(F)cc1Cl,82 to 83 °C
6,O=[N+]([O-])c1c[nH]nc1-c1ccc(Cl)cc1,172 to 174 °C
7,CC(=O)N1CCN(CCNc2ncc3ncnc(Nc4ccc(F)c(Cl)c4)c3n2)CC1,196 to 198 °C
8,COc1ccc([N+](=O)[O-])nc1C,96 to 98 °C
9,O=C(Nc1ccccc1)C1=C(O)c2ccc3ccccc3c2S(=O)(=O)N1,260 to 262 °C
10,O=C(c1ccccc1)N1N=CCC1c1ccccc1 (centres undefined),105 to 106 °C
11,CCCCCCCCCCCCCCCCCCNC(=O)OCC1(CNS(=O)(=O)CCCI)CCCO1 (centres undefined),66.5 to 67.5 °C
12,CC1(C)Oc2ccsc2C(N2CCCC2)C1O (centres undefined),85 to 89 °C
13,CCOC(=O)/C=C/c1ccc(C(C)(C)C)c([N+](=O)[O-])c1,77 to 78 °C
14,O=c1ncc(Cl)cn1CS(=O)c1ccc(Cl)cc1 (centres undefined),262 °C
15,COC(=O)c1ccc(Cn2c(=O)c3cc(C#CCc4ccc(OC)cc4)ccc3n3cnnc23)cc1,249 °C
16,CCOC(=O)C1=C(C)NC(C#N)=C(C(=O)OCC)C1c1cccc([N+](=O)[O-])c1 (centres undefined),174 to 177 °C
17,C#CCOC(=O)c1ccc(Br)s1,65 to 68 °C
18,COc1nsc(SCOCC#CI)c1C#N,124 to 125 °C
19,CS(=O)(=O)c1cc(Br)nc(Br)c1,137 to 138 °C
20,Nc1ncnc2c1c(-c1ccc(Oc3ccc(F)cc3)cc1)cn2C1CCOC1 (centres undefined),198 to 199 °C
21,CSc1nc2c(Cl)ccc(-n3c(=O)cc(C(F)(F)F)n(C)c3=O)c2s1,79 to 81 °C
22,CCC1(C)NC(=O)N=C1SCc1ccccc1N(C)C (centres undefined),111 to 113 °C

row,SMILES,melting point
1,COc1cc(OC)c2c(=O)cc(-c3n[nH]c4ccccc34)oc2c1,253 to 255 °C
2,CC(=O)OC1CSC(Oc2cccc3cc(C(C)=O)oc23)C(OC(C)=O)C1OC(C)=O (centres undefined),208 to 209 °C
3,CCCc1c(OCCCCCCCC(=O)OC)ccc(C(C)=O)c1O,39 to 41 °C
4,CC(C)(C)C(NC(=O)c1ccc(I)cc1)NS(=O)(=O)Nc1cccnc1 (centres undefined),177 to 178 °C
5,COC(=O)C(NC(=O)c1ccccc1)c1ccc(-c2ccc(S(=O)(=O)O)cc2)cc1 (centres undefined),> 250 °C
6,COc1ccc(Cl)cc1C(=O)NCCc1ccc(-c2ccccn2)c(S(N)(=O)=O)c1,202 to 203 °C
7,O=C(CCCN1CCCCC1)c1ccc2c(c1)Cc1cc(C(=O)CCCN3CCCCC3)ccc1O2,115 to 117 °C
8,Cc1ncnc(-c2cc([N+](=O)[O-])c(F)cc2F)c1Cl,95 to 97 °C
9,CNc1c(F)cc2c(=O)c(C(=O)O)cn(-c3ccc(F)c(OC)c3)c2c1Cl,250 to 253 °C
10,NS(=O)(=O)c1ccc(Cl)c(NC(=O)c2cnn3c(C(F)(F)F)cc(-c4ccc(C(F)(F)F)cc4)nc23)c1,300 °C
11,Cn1ncc2c1-c1c(SC(C)(C)C)sc(C(=O)O)c1CC2,277 to 278 °C
12,COc1cc2ccc(C(=O)CCCCBr)cc2cc1OC,93 to 95 °C
13,CCCCc1nc2cnc3cccnc3c2n1CCCCNC(=O)OC(C)(C)C,96 to 98 °C
14,CCN1CC(=O)Nc2cc(Nc3ncc(Cl)c(Nc4ccccc4S(=O)(=O)N(C)C)n3)c(OC)cc2C1,175 °C
15,Oc1ccc(Cc2ncc[nH]2)cc1,188 to 190 °C
16,Nc1ncn(C[C@H](O)COC(c2ccccc2)(c2ccccc2)c2ccccc2)c(=O)n1,130 to 132 °C
17,CC(CCCC(C)(C)O)C1CC(=O)C2=C3CCC4CC(O)CCC4(C)C3CCC21C (centres undefined),177 to 179 °C
18,CSCCC1(C)CCc2c(C)c(O)c(C)c(C)c2O1 (centres undefined),66.5 to 67 °C
19,NP(N)(=O)NC(=O)CCc1ccccc1,> 300 °C
20,Brc1ccc2sc3ccccc3c2c1,112 to 116 °C
21,Cc1c(C)c(N2CCN(c3ccc(S(C)=O)cc3)CC2)c(C)c2c1OC(C)(C)C2 (centres undefined),223 to 227 °C
22,CNC(=O)c1cc(C(=O)OCCO)cc(C(=O)NC)n1,214 to 215 °C

# The remaining lines, values ahead:
row,melting point,SMILES
1,100 to 124 °C,NC(=O)c1ccc([N+](=O)[O-])c(CN2C(=O)c3ccccc3C2=O)c1
2,280 °C,Cn1cc(-c2cccc(C(=O)O)c2)c(=O)c(-n2cccn2)c1
3,206 to 207 °C,O=C(Nc1ccc2nc(CN3CCCC3)ccc2c1)N1CCC(c2ccc(F)cc2)CC1
4,219 to 220 °C,CC(O)Cc1cccc(Nc2nccc(-c3sc(N)nc3-c3ccccc3)n2)c1 (centres undefined)
5,210 to 212 °C,CCN(CC)CC1CCCCN1CC(=O)N1c2ccccc2C(=O)Nc2cccnc21 (centres undefined)
6,157 to 159 °C,CCN(C(=O)C1CCC1)c1cccc(-c2ccc3nnc(C)n3n2)c1
7,112 to 113 °C,CN(C)c1ccc(/C=C/c2c(F)cccc2F)cc1
8,222 to 223 °C,CC(C)NC(=O)Nc1cc(-c2c(-c3ccc(F)cc3)nc3cccnn23)ccn1
9,114 °C,CCC(=O)/C=C/c1c([N+](=O)[O-])ccc2c1OC(COS(=O)(=O)c1ccc(C)cc1)CO2 (centres undefined)
10,125 to 129 °C,NCc1ccc(C(=O)NC2CCN(C3CCCCC3)C2)cc1 (centres undefined)
11,118 to 120 °C,CCCCC(=O)N(Cc1cccc(OC)c1)c1cc(F)cc(-c2nnn[nH]2)c1
12,119 to 121 °C,CC(=O)NCc1ccc2c(c1)N(C1CCN(CCCCc3ccc(F)cc3)CC1)CC2
13,101 to 104 °C,COc1cc(N2CCN(C[C@@H](O)CO)CC2)ccc1Nc1ncc2ccc(-c3cc(Cl)ccc3OC)n2n1
14,122 to 125 °C,C[C@H](NC(=O)[C@@H](Cc1ccccc1)NS(=O)(=O)Cc1ccccc1)C(=O)NC1CCc2nc(N)sc2C1 (some centres undefined)
15,181 to 183 °C,CN1Cc2c(-c3noc(CN)n3)ncn2-c2sccc2C1=O
16,318 to 320 °C,O=c1[nH]c2ncc(-c3ccc(O)cc3)nc2n1C1CCCCC1
17,136 to 138 °C,CC(Oc1cccc(Cl)c1)c1nnc(N)s1 (centres undefined)

row,melting point,SMILES
1,272 °C,COc1ccc(N2CCN(c3ncc(-n4cn[nH]c4=O)cn3)CC2)cc1
2,236 to 237 °C,CCOc1cc(-c2cnc3[nH]cc(C(=O)C(C)(C)C)c3n2)cc(N2CCCC2)c1
3,116 to 118 °C,CON(C)C(=O)Nc1ccc(CN2OCCC(C)(C)C2=O)c(Cl)c1
4,192 to 193 °C,COc1ccc(C(=O)c2cccc(Cc3ccc(=O)[nH]n3)c2Cl)cc1
5,162 to 165 °C,CN(Cc1ccc(CCn2cnc3cc(-c4ccc(Cl)cc4)sc3c2=O)cc1)C(=O)CCl
6,75 °C,O=C(CC1=CC(OC2CCCCO2)CC1=O)Oc1ccc2ccccc2c1 (centres undefined)
7,194 to 195 °C,CC(=O)N1CCN(Cc2nnc(-c3cc4cccc(N(C)S(=O)(=O)c5cccs5)c4[nH]3)s2)CC1
8,73 to 80 °C,CCCNc1nc(N)c2ncn(C3C=CCCC3)c2n1 (centres undefined)
9,240 to 244 °C,CC(=O)Nc1ccc(S(=O)(=O)c2cccc3cnccc23)cc1
10,297 °C,CC(C)(C)c1ccc(-c2cc3ccc(C(=O)O)cc3[nH]2)cc1
11,103 to 106 °C,Cc1ccccc1-c1cn(C)cc(-c2ccc(Cl)c(Cl)c2)c1=O
12,142 °C,CC1(C)OC(=O)c2c(cccc2-c2ccccn2)O1
13,167 to 168 °C,COc1ccc(-c2ccc(C(=O)NN)cc2)cc1OC1CCCC1
14,155 to 157 °C,CCOC(=O)COc1ccc(C(=O)Nc2ccccc2Sc2cccc(O)c2-c2nnn[nH]2)cc1
15,105 to 107 °C,CCOC(=O)c1ccc(-c2ccc(-c3ccccc3)c(-c3ccc4c(c3)C(C)(C)CCC4(C)C)c2)nc1
16,76 °C,C#CCc1c(C)nc2c(OCc3c(C)cccc3N(C)C(C)=O)cccn12
